# Test results taken from PubChem BioAssay (NCI).
#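 Tested at 5 concentrations; 48 h exposure; 96-well plates; endpoints linearly interpolated, else capped at highest concentration. GI50 is the concentration that inhibits growth by half. TGI: concentration producing complete growth inhibition.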
# What was measured:
# Assay in all cases: DTP human tumour cell line panel, 48 h
# HOP-62 NSCLC = test system: HOP-62 NSCLC
# HL-60(TB) leukemia = test system: HL-60(TB) leukemia
# HCT-116 colon = test system: HCT-116 colon
# NCI-H460 lung = test system: NCI-H460 lung
# MALME-3M melanoma = test system: MALME-3M melanoma
# EKVX NSCLC = test system: EKVX NSCLC
# OVCAR-3 ovarian = test system: OVCAR-3 ovarian
# SN12C renal = test system: SN12C renal
# MCF7 breast = test system: MCF7 breast
# UACC-62 melanoma = test system: UACC-62 melanoma
# DU-145 prostate = test system: DU-145 prostate
# HOP-92 NSCLC = test system: HOP-92 NSCLC
# UACC-257 melanoma = test system: UACC-257 melanoma
# M14 melanoma = test system: M14 melanoma
# SK-MEL-2 melanoma = test system: SK-MEL-2 melanoma
# RPMI-8226 leukemia = test system: RPMI-8226 leukemia
# MDA-N = test system: MDA-N
# 786-0 renal = test system: 786-0 renal
# CAKI-1 renal = test system: CAKI-1 renal
# A549 NSCLC = test system: A549 NSCLC
# SR leukemia = test system: SR leukemia
# SW-620 colon = test system: SW-620 colon
# MDA-MB-231 breast = test system: MDA-MB-231 breast
# KM12 colon = test system: KM12 colon
# HCT-15 colon = test system: HCT-15 colon
# SF-295 CNS = test system: SF-295 CNS
# ACHN renal = test system: ACHN renal
# SK-MEL-28 melanoma = test system: SK-MEL-28 melanoma
# SF-268 CNS = test system: SF-268 CNS
# UO-31 renal = test system: UO-31 renal
# COLO 205 colon = test system: COLO 205 colon
# SF-539 CNS = test system: SF-539 CNS
# A498 renal = test system: A498 renal
# K-562 leukemia = test system: K-562 leukemia
# T-47D breast = test system: T-47D breast
# SNB-75 CNS = test system: SNB-75 CNS
# HT29 colon = test system: HT29 colon
# MOLT-4 leukemia = test system: MOLT-4 leukemia
# HCC-2998 colon = test system: HCC-2998 colon
# U251 CNS = test system: U251 CNS
# PC-3 prostate = test system: PC-3 prostate
# NCI/ADR-RES ovarian = test system: NCI/ADR-RES ovarian
# SNB-19 CNS = test system: SNB-19 CNS
# NCI-H522 lung = test system: NCI-H522 lung
# OVCAR-5 ovarian = test system: OVCAR-5 ovarian
# MDA-MB-435 = test system: MDA-MB-435
# OVCAR-8 ovarian = test system: OVCAR-8 ovarian
# SK-MEL-5 melanoma = test system: SK-MEL-5 melanoma
# RXF 393 renal = test system: RXF 393 renal
# BT-549 breast = test system: BT-549 breast
# NCI-H23 lung = test system: NCI-H23 lung
# CCRF-CEM leukemia = test system: CCRF-CEM leukemia
# OVCAR-4 ovarian = test system: OVCAR-4 ovarian
# NCI-H226 lung = test system: NCI-H226 lung
# HS 578T breast = test system: HS 578T breast
# SK-OV-3 ovarian = test system: SK-OV-3 ovarian
# TK-10 renal = test system: TK-10 renal
# IGROV1 ovarian = test system: IGROV1 ovarian
# LOX IMVI melanoma = test system: LOX IMVI melanoma
compound,measurement,setting,value
COc1c2cc(C(C)(C)C)cc1Cc1cccc(c1O)Cc1cc(C(C)(C)C)cc(c1OC)Cc1cccc(c1O)Cc1cc(C(C)(C)C)cc(c1OC)Cc1cccc(c1O)C2,TGI,HOP-62 NSCLC,> 100 µM
same,TGI,HL-60(TB) leukemia,> 100 µM
same,TGI,HCT-116 colon,> 100 µM
same,TGI,NCI-H460 lung,> 100 µM
same,TGI,MALME-3M melanoma,> 100 µM
same,TGI,EKVX NSCLC,> 100 µM
same,TGI,OVCAR-3 ovarian,> 100 µM
same,TGI,SN12C renal,> 100 µM
same,TGI,MCF7 breast,> 100 µM
same,TGI,UACC-62 melanoma,> 100 µM
same,TGI,DU-145 prostate,> 100 µM
same,TGI,HOP-92 NSCLC,> 100 µM
same,TGI,UACC-257 melanoma,> 100 µM
same,TGI,M14 melanoma,> 100 µM
same,TGI,SK-MEL-2 melanoma,> 100 µM
same,TGI,RPMI-8226 leukemia,> 100 µM
same,TGI,MDA-N,> 100 µM
same,TGI,786-0 renal,> 100 µM
same,TGI,CAKI-1 renal,> 100 µM
same,TGI,A549 NSCLC,> 100 µM
same,TGI,SR leukemia,> 100 µM
same,TGI,SW-620 colon,> 100 µM
same,TGI,MDA-MB-231 breast,> 100 µM
same,TGI,KM12 colon,> 100 µM
same,TGI,HCT-15 colon,> 100 µM
same,TGI,SF-295 CNS,> 100 µM
same,TGI,ACHN renal,> 100 µM
same,TGI,SK-MEL-28 melanoma,> 100 µM
same,TGI,SF-268 CNS,> 100 µM
same,TGI,UO-31 renal,> 100 µM
same,TGI,COLO 205 colon,> 100 µM
same,TGI,SF-539 CNS,> 100 µM
same,TGI,A498 renal,> 100 µM
same,TGI,K-562 leukemia,> 100 µM
same,TGI,T-47D breast,> 100 µM
same,TGI,SNB-75 CNS,> 100 µM
same,TGI,HT29 colon,> 100 µM
same,TGI,MOLT-4 leukemia,> 100 µM
same,TGI,HCC-2998 colon,> 100 µM
same,TGI,U251 CNS,> 100 µM
same,TGI,PC-3 prostate,> 100 µM
same,TGI,NCI/ADR-RES ovarian,> 100 µM
same,TGI,SNB-19 CNS,> 100 µM
same,TGI,NCI-H522 lung,> 100 µM
same,TGI,OVCAR-5 ovarian,> 100 µM
same,TGI,MDA-MB-435,> 100 µM
same,TGI,OVCAR-8 ovarian,> 100 µM
same,TGI,SK-MEL-5 melanoma,> 100 µM
same,TGI,RXF 393 renal,> 100 µM
COc1cc(S(C)(=O)=O)ccc1Nc1nc2ccc(-c3ccc(NC(=O)[C@H](C)c4ccc(F)cc4)cc3)cn2n1,GI50,BT-549 breast,> 63.8 µM
same,TGI,BT-549 breast,> 100 µM
same,GI50,HOP-62 NSCLC,> 100 µM
same,TGI,HOP-62 NSCLC,> 100 µM
same,GI50,HL-60(TB) leukemia,12.9 µM
same,TGI,HL-60(TB) leukemia,> 100 µM
same,GI50,HCT-116 colon,0.0828 µM
same,TGI,HCT-116 colon,> 100 µM
same,GI50,NCI-H460 lung,0.0821 µM
same,TGI,NCI-H460 lung,> 100 µM
same,GI50,MALME-3M melanoma,> 100 µM
same,TGI,MALME-3M melanoma,> 100 µM
same,GI50,EKVX NSCLC,> 100 µM
same,TGI,EKVX NSCLC,> 100 µM
same,GI50,OVCAR-3 ovarian,> 100 µM
same,TGI,OVCAR-3 ovarian,> 100 µM
same,GI50,SN12C renal,> 100 µM
same,TGI,SN12C renal,> 100 µM
same,GI50,MCF7 breast,0.749 µM
same,TGI,MCF7 breast,> 100 µM
same,GI50,UACC-62 melanoma,75.6 µM
same,TGI,UACC-62 melanoma,> 100 µM
same,GI50,DU-145 prostate,> 100 µM
same,TGI,DU-145 prostate,> 100 µM
same,GI50,NCI-H23 lung,> 100 µM
same,TGI,NCI-H23 lung,> 100 µM
same,GI50,HOP-92 NSCLC,> 51.1 µM
same,TGI,HOP-92 NSCLC,> 100 µM
same,GI50,UACC-257 melanoma,> 100 µM
same,TGI,UACC-257 melanoma,> 100 µM
same,GI50,M14 melanoma,33.2 µM
same,TGI,M14 melanoma,> 100 µM
same,GI50,SK-MEL-2 melanoma,> 100 µM
same,TGI,SK-MEL-2 melanoma,> 100 µM
same,GI50,RPMI-8226 leukemia,0.847 µM
same,TGI,RPMI-8226 leukemia,> 100 µM
same,GI50,786-0 renal,> 100 µM
same,TGI,786-0 renal,> 100 µM
same,GI50,CAKI-1 renal,> 100 µM
same,TGI,CAKI-1 renal,> 100 µM
same,GI50,CCRF-CEM leukemia,0.62 µM
same,TGI,CCRF-CEM leukemia,> 100 µM
same,GI50,A549 NSCLC,98.5 µM
same,TGI,A549 NSCLC,> 100 µM
same,GI50,SR leukemia,0.211 µM
same,TGI,SR leukemia,> 100 µM
same,GI50,SW-620 colon,17.1 µM
same,TGI,SW-620 colon,> 100 µM
same,GI50,OVCAR-4 ovarian,> 100 µM
same,TGI,OVCAR-4 ovarian,> 100 µM
same,GI50,MDA-MB-231 breast,26.6 µM
same,TGI,MDA-MB-231 breast,> 100 µM
same,GI50,KM12 colon,> 72.4 µM
same,TGI,KM12 colon,> 100 µM
same,GI50,NCI-H226 lung,> 100 µM
same,TGI,NCI-H226 lung,> 100 µM
same,GI50,HCT-15 colon,0.075 µM
same,TGI,HCT-15 colon,> 100 µM
same,GI50,SF-295 CNS,> 100 µM
same,TGI,SF-295 CNS,> 100 µM
same,GI50,ACHN renal,> 83.5 µM
same,TGI,ACHN renal,> 100 µM
same,GI50,HS 578T breast,> 63.4 µM
same,TGI,HS 578T breast,> 100 µM
same,GI50,SK-MEL-28 melanoma,> 100 µM
same,TGI,SK-MEL-28 melanoma,> 100 µM
same,GI50,SF-268 CNS,> 100 µM
same,TGI,SF-268 CNS,> 100 µM
same,GI50,SK-OV-3 ovarian,> 100 µM
same,TGI,SK-OV-3 ovarian,> 100 µM
same,GI50,UO-31 renal,> 100 µM
same,TGI,UO-31 renal,> 100 µM
same,GI50,COLO 205 colon,0.0838 µM
same,TGI,COLO 205 colon,> 100 µM
same,GI50,SF-539 CNS,> 39.8 µM
same,TGI,SF-539 CNS,> 100 µM
same,GI50,A498 renal,> 100 µM
same,TGI,A498 renal,> 100 µM
same,GI50,K-562 leukemia,> 78.7 µM
same,TGI,K-562 leukemia,> 100 µM
same,GI50,TK-10 renal,> 100 µM
same,TGI,TK-10 renal,> 100 µM
same,GI50,T-47D breast,0.596 µM
same,TGI,T-47D breast,> 100 µM
same,GI50,SNB-75 CNS,47.1 µM
same,TGI,SNB-75 CNS,> 100 µM
same,TGI,HT29 colon,> 100 µM
same,GI50,IGROV1 ovarian,> 100 µM
same,TGI,IGROV1 ovarian,> 100 µM
same,GI50,MOLT-4 leukemia,1.18 µM
same,TGI,MOLT-4 leukemia,> 100 µM
same,GI50,HCC-2998 colon,> 100 µM
same,TGI,HCC-2998 colon,> 100 µM
same,GI50,U251 CNS,35.9 µM
same,TGI,U251 CNS,> 100 µM
same,GI50,PC-3 prostate,4.29 µM
same,TGI,PC-3 prostate,> 100 µM
same,GI50,NCI/ADR-RES ovarian,> 20.6 µM
same,TGI,NCI/ADR-RES ovarian,> 100 µM
same,GI50,LOX IMVI melanoma,10.6 µM
same,TGI,LOX IMVI melanoma,> 100 µM
same,GI50,SNB-19 CNS,> 100 µM
same,TGI,SNB-19 CNS,> 100 µM
same,GI50,NCI-H522 lung,> 100 µM
same,TGI,NCI-H522 lung,> 100 µM
same,GI50,OVCAR-5 ovarian,> 100 µM
same,TGI,OVCAR-5 ovarian,> 100 µM
same,GI50,MDA-MB-435,> 100 µM
same,TGI,MDA-MB-435,> 100 µM
same,GI50,OVCAR-8 ovarian,9.36 µM
same,TGI,OVCAR-8 ovarian,> 100 µM
same,GI50,SK-MEL-5 melanoma,0.4 µM
same,TGI,SK-MEL-5 melanoma,> 100 µM
same,GI50,RXF 393 renal,> 48.5 µM
same,TGI,RXF 393 renal,> 100 µM
